Results reported in US20240261417A1, “SOS1 DEGRADING AGENT AND PREPARATION METHOD THEREFOR AND APPLICATION THEREOF” (SHANGHAI LEADINGTAC PHARMACEUTICAL CO. LTD., priority 2021, published 2024).
Like-named read-outs stand apart in the source and are kept apart here.

Target: T1, SOS1 protein (Homo sapiens, UniProt Q07889)
T1 sequence (Q07889 1-1333): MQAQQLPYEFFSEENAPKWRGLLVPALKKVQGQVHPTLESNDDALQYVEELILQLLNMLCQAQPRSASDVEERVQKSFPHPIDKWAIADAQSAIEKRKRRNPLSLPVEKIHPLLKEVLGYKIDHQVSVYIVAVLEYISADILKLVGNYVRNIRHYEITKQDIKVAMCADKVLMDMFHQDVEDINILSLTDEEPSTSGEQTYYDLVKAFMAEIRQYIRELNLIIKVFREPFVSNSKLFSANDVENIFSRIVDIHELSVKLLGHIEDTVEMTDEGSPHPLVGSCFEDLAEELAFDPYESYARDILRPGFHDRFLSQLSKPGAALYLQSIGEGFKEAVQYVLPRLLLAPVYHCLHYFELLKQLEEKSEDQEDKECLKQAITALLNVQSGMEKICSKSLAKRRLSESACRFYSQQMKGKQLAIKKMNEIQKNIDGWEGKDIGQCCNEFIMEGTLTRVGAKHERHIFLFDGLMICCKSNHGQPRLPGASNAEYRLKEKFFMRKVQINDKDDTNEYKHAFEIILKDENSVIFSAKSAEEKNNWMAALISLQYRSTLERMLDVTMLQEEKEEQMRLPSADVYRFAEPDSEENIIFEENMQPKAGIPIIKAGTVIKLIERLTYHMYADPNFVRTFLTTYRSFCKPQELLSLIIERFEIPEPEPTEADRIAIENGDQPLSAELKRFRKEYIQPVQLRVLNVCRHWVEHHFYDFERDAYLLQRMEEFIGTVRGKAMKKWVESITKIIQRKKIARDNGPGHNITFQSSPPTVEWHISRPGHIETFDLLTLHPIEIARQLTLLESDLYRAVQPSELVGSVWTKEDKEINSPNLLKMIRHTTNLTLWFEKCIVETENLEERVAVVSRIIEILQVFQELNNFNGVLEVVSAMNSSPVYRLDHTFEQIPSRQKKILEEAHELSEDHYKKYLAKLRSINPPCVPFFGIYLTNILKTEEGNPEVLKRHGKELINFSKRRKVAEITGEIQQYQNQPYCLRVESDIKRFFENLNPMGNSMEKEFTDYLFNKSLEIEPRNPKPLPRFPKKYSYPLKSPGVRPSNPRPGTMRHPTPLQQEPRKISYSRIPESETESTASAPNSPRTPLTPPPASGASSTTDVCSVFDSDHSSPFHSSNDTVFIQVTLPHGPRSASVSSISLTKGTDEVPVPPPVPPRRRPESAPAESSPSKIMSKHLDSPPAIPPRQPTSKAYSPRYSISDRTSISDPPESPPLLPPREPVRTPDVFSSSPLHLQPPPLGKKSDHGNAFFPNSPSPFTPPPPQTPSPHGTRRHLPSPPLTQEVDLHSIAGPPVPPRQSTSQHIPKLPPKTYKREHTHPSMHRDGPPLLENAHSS
Test: SOS1 degradation assay (Western blot), NCI-H358 cells
Type: cell-based
Set-up: The degradation of SOS1 by the compounds was investigated on KRAS G12C mutant human non-small cell lung cancer cells NCI-H358; host or cells: NCI-H358 (human cancer cell lines)
Settings: for DC50: read-out: NCI-H358 (G12C) DC50
Experimental: The specific procedures were as follows:
0.95 mL of cells were seeded into each well of a 24-well cell culture plate to achieve a cell density of 5×10^5 cells/well; the cell plate was incubated in an incubator at 37° C. with 5% CO2 overnight. Then 50 μL of the compound solution after dilution was added to each of the wells with the corresponding cells, so that the final concentration of the compound was in a range of 0.03-3000 nM. […] After dosing, the cell plate was incubated in an incubator at 37° C. with 5% CO2 for 24 h. […] After the plate was left to stand on ice for 30 min, the protein lysate in each well was transferred to a 1.5 mL centrifuge tube and centrifuged at 15000 g for 20 min at 4° C. The cell lysate supernatant after centrifugation was cryopreserved at −80° C. for testing and was used for determining the degradation level of the SOS1 protein by a WB method. The concentration of total protein in the cell lysate supernatant was determined using the BCA Protein Quantification Kit (Tiangen, PA115-02).
The concentration of total protein in the cell lysate was determined by BCA. The total protein was adjusted to 0.5 μg/μL with PBS and 5× SDS-PAGE protein loading buffer (Beyotime, P0015L), incubated in a water bath at 100° C. for 15 min, incubated in an ice bath on ice for 5 min, centrifuged at 14000 g for 1 min at 4° C., and mixed well as a loading sample for WB. Protein electrophoresis was performed on a precast gel (KeyGEN, KGMGO10W15) with a loading volume of 10 μL (total protein: 5 μg) using a Tris-MOPS-SDS running solution (Adamas, P1598253) at a constant voltage of 120 V for 55 min. After the electrophoresis, the protein on the gel strip was transferred to a PVDF membrane at a constant current of 250 mA for 65 min. After the membrane transfer, the membrane was incubated in 1× QuickBlock blocking buffer (Beyotime, P0235) for 30 min at room temperature. […] The protein map was subjected to gray value analysis by the chemiluminescence imaging system from Clinx. […] Then the degradation rate was calculated by comparing the gray correction value with the gray correction value of the control group. Then nonlinear curve fitting was performed by GraphPad Prism 8 in the logarithmic concentration-inhibition rate to obtain the DC50 and Dmax values of the compounds.

[1] = SOS1 degradation, NCI-H358 cells, 24 h, Western blot
[2] = SOS1 degradation, NCI-H358 cells, 24 h, Western blot, read-out: NCI-H358 (G12C) Dmax

SMILES	DC50 [1]	Dmax [2]	Dmax (NCI-H358, read-out: NCI-H358 (G12C) Dmax)	NCI-H358 (G12C) Dmax [1]
Cc1nc(N[C@H](C)c2cc(N)cc(C(F)(F)F)c2)c2cc(C3CCN(CC(=O)NCCC4CCC5(CC4)CCN(C(=O)c4ccc(Cl)c(N6CCC(=O)NC6=O)c4)CC5)CC3)ccc2n1 [Example 77, (R)-2-(4-(4-((1-(3-amino-5-(trifluoromethyl)phenyl)ethyl)amino)-2-methylquinazolin-6-yl)piperidin-1-yl)-N-(2-(3-(4-chloro-3-(2,4-dioxotetrahydropyrimidin-1(2H)-yl)benzoyl)-3-azaspiro[5.5]undecan-9-yl)ethyl)acetamide]	500 to 1000 nM	80 to 100%	–	–
COc1cc2nc(C)nc(N[C@H](C)c3cc(N)cc(C(F)(F)F)c3)c2cc1[C@H]1CC[C@H](C(=O)N2CCC(CCCN(C)C3CCN(Cc4ccc(Cl)c(N5CCC(=O)NC5=O)c4)CC3)CC2)CC1 [Example 38, 1-(5-((4-((3-(1-((1R,4R)-4-(4-(((R)-1-(3-amino-5-(trifluoromethyl)phenyl)ethyl)amino)-7-methoxy-2-methylquinazolin-6-yl)cyclohexane-1-carbonyl)piperidin-4-yl)propyl)(methyl)amino)piperidin-1-yl)methyl)-2-chlorophenyl)dihydropyrimidine-2,4(1H,3H)-dione]	1000 to 10000 nM	< 30%	–	–
COc1cc2nc(C)nc(N[C@H](C)c3cc(N)cc(C(F)(F)F)c3)c2cc1[C@H]1CC[C@H](C(=O)N2CCC(CCCC3CCN(C(=O)c4ccc(Cl)c(N5CCC(=O)NC5=O)c4)CC3)CC2)CC1 [Example 14, 1-(5-(4-(3-(1-((1R,4R)-4-(4-(((R)-1-(3-amino-5-(trifluoromethyl)phenyl)ethyl)amino)-7-methoxy-2-methylquinazolin-6-yl)cyclohexane-1-carbonyl)piperidin-4-yl)propyl)piperidine-1-carbonyl)-2-chlorophenyl)dihydropyrimidine-2,4(1H,3H)-dione]	< 50 nM	50 to 80%	–	–
Cc1nc(N[C@H](C)c2cc(N)cc(C(F)(F)F)c2)c2cc(-c3ccn(CCCN(C)CC4CCC5(CC4)CCN(C(=O)c4ccc(Cl)c(N6CCC(=O)NC6=O)c4)CC5)c(=O)c3)c(C)cc2n1 [Example 42, (R)-1-(5-(9-(((3-(4-(4-((1-(3-amino-5-(trifluoromethyl)phenyl)ethyl)amino)-2,7-dimethylquinazolin-6-yl)-2-oxopyridin-1(2H)-yl)propyl)(methyl)amino)methyl)-3-azaspiro[5.5]undecane-3-carbonyl)-2-chlorophenyl)dihydropyrimidine-2,4(1H,3H)-dione]	1000 to 10000 nM	30 to 50%	–	–
COc1cc2nc(C)nc(N[C@H](C)c3cc(NC(C)C)cc(C(F)(F)F)c3)c2cc1[C@H]1CC[C@H](C(=O)N2CCN(CC3CCC4(CC3)CCN(C(=O)c3ccc(Cl)c(N5CCC(=O)NC5=O)c3)CC4)CC2)CC1 [Example 18, 1-(2-chloro-5-(9-((4-((1R,4R)-4-(4-(((R)-1-(3-(isopropylamino)-5-(trifluoromethyl)phenyl)ethyl)amino)-7-methoxy-2-methylquinazolin-6-yl)cyclohexane-1-carbonyl)piperazin-1-yl)methyl)-3-azaspiro[5.5]undecane-3-carbonyl)phenyl)dihydropyrimidine-2,4(1H,3H)-dione]	1000 to 10000 nM	–	< 30%	–
COc1cc2nc(C)nc(N[C@H](C)c3cc(N)cc(C(F)(F)F)c3)c2cc1[C@H]1CC[C@H](C(=O)N2CCN(CC3CCC4(CC3)CCN(C(=O)c3ccc(F)c(N5CCC(=O)NC5=O)c3)CC4)CC2)CC1 [Example 24, 1-(5-(9-((4-((1R,4R)-4-(4-(((R)-1-(3-amino-5-(trifluoromethyl)phenyl)ethyl)amino)-7-methoxy-2-methylquinazolin-6-yl)cyclohexane-1-carbonyl)piperazin-1-yl)methyl)-3-azaspiro[5.5]undecane-3-carbonyl)-2-fluorophenyl)dihydropyrimidine-2,4(1H,3H)-dione]	< 50 nM	80 to 100%	–	–
COc1cc2nc(C)nc(N[C@@H](C)c3cc(N)cc(C(F)(F)F)c3)c2cc1[C@H]1CC[C@@H](C(=O)N2CCN(CCC3CCC4(CC3)CCN(C(=O)c3ccc(Cl)c(N5CCC(=O)NC5=O)c3)CC4)CC2)CC1 [Example 34, 1-(5-(9-(2-(4-((1S,4S)-4-(4-(((R)-1-(3-amino-5-(trifluoromethyl)phenyl)ethyl)amino)-7-methoxy-2-methylquinazolin-6-yl)cyclohexane-1-carbonyl)piperazin-1-yl)ethyl)-3-azaspiro[5.5]undecane-3-carbonyl)-2-chlorophenyl)dihydropyrimidine-2,4(1H,3H)-dione]	–	–	–	C (when 30≤Dmax (%)<50, the level was C)
COc1cc2nc(C)nc(N[C@H](C)c3cc(-c4c(Cl)cccc4CN(C)C)cs3)c2cc1[C@H]1CC[C@H](C(=O)N2CCC(CCOCC3CCN(c4ccc5c(c4)C(=O)N(C4CCC(=O)NC4=O)C5=O)CC3)CC2)CC1 (stereo partly shown) [Example 41]	100 to 500 nM	80 to 100%	–	–
CCNc1cc([C@@H](C)Nc2nc(C)nc3cc(OC)c([C@H]4CC[C@H](C(=O)N5CCN(CC6CCC7(CC6)CCN(C(=O)c6ccc(Cl)c(N8CCC(=O)NC8=O)c6)CC7)CC5)CC4)cc23)cc(C(F)(F)F)c1 [Example 35, 1-(2-chloro-5-(9-((4-((1R,4R)-4-(4-(((R)-1-(3-(ethylamino)-5-(trifluoromethyl)phenyl)ethyl)amino)-7-methoxy-2-methylquinazolin-6-yl)cyclohexane-1-carbonyl)piperazin-1-yl)methyl)-3-azaspiro[5.5]undecane-3-carbonyl)phenyl)dihydropyrimidine-2,4(1H,3H)-dione]	1000 to 10000 nM	–	–	C (when 30≤Dmax (%)<50, the level was C)
COc1cc2nc(C)nc(N[C@H](C)c3cc(N)cc(C(F)(F)F)c3)c2cc1[C@H]1CC[C@H](C(=O)N2CCC(CN3CCC4(CC3)CCN(C(=O)c3ccc(Cl)c(N5CCC(=O)NC5=O)c3)CC4)CC2)CC1 [Example 7, 1-(5-(9-((1-((1R,4R)-4-(4-(((R)-1-(3-amino-5-(trifluoromethyl)phenyl)ethyl)amino)-7-methoxy-2-methylquinazolin-6-yl)cyclohexane-1-carbonyl)piperidin-4-yl)methyl)-3,9-diazaspiro[5.5]undecane-3-carbonyl)-2-chlorophenyl)dihydropyrimidine-2,4(1H,3H)-dione]	1000 to 10000 nM	30 to 50%	–	–
